Tests used:
[1] = logP determination by HPLC (EEC directive 79/831 Annex V. A8); assay type: physicochemical; details: gradient method, acetonitrile/0.1% aqueous phosphoric acid, preparation examples
Method: The logP values were determined in accordance with EEC directive 79/831 Annex V. A8 by HPLC (gradient method, acetonitrile/0.1% aqueous phosphoric acid) […]

[2] = tested on: Puccinia recondita; test: Puccinia test (wheat)/protective; assay type: in vivo; details: protective, application rate 100 g/ha, evaluation 10 days after inoculation, 0% = control, 100% = no infection
Method: Puccinia test (wheat)/protective
To produce a suitable preparation of active compound, 1 part by weight of active compound is mixed with the stated amounts of solvent and emulsifier, and the concentrate is diluted with water to the desired concentration.
To test for protective activity, young plants are sprayed with the preparation of active compound at the stated application rate. After the spray coating has dried, the plants are sprayed with a conidia suspension of Puccinia recondita. The plants remain in an incubation cabin at 20° C. and 100% relative atmospheric humidity for 48 hours.
The plants are then placed in a greenhouse at a temperature of about 20° C. and a relative atmospheric humidity of 80% to promote the development of rust pustules.
Evaluation is carried out 10 days after the inoculation. 0% means an efficacy which corresponds to that of the control, whereas an efficacy of 100% means that no infection is observed.

Row | SMILES | chromatographic logP [1] | efficacy [2]
1 | CNC(=O)C(=NOC)c1ccccc1CSc1ccn(-c2ccc(Br)cc2)n1 [Example 3, N-methyl-[2-( {[1-(4-bromophenyl)-1H-pyrazol-3-yl]sulphanyl}methyl)phenyl]-(methoxyimino)acetamide] | 3.5 | –
2 | CON=C(C1=NOCCO1)c1ccccc1CSc1ccn(-c2ccc(Cl)cc2)n1 [Example 1, [2-({[1-(4-chlorophenyl)-1H-pyrazol-3-yl]sulphanyl}methyl)phenyl](5,6-dihydro-1,4,2-dioxazin-3-yl)methanone O-methyloxime] | 3.69 | ≥ 98%
3 | CON=C(C(=O)OC)c1ccccc1CSc1ccn(-c2ccc(Br)cc2)n1 [Example 2, methyl [2-({[1-(4-bromophenyl)-1H-pyrazol-3-yl]sulphanyl}methyl)phenyl](methoxyimino)acetate] | 4.07 | –
